# Measured values from US7138361B2, “Herbicidal heterocycles” (E. I. du Pont de Nemours and Company, priority 2000, dated 2006).
# Tests used:
# Format in all cases: in vivo
# [1] = test system: duck salad (Heteranthera limosa); experiment: Test B flooded paddy test; conditions: Rate 1000 g/ha, scale of 0 to 100 where 0 is no effect and 100 is complete control, visually evaluated after 13 to 15 days
# Procedure, shortened: (§1)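 Rice, smallflower flatsedge, duck salad and barnyardgrass grown to 2-leaf stage in flooded paddy and treated with test chemicals. Plants kept in greenhouse 13 to 15 days, then visually rated against controls. Scale 0 (no effect) to 100 (complete control).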
# rice (Oryza saliva) = experiment: Test B flooded paddy test; conditions: Rate 1000 g/ha, scale of 0 to 100 where 0 is no effect and 100 is complete control, visually evaluated after 13 to 15 days
# Procedure, shortened: as §1
# [2] = test system: smallflower flatsedge (Cyperus difformis); experiment: Test B flooded paddy test; conditions: Rate 1000 g/ha, scale of 0 to 100 where 0 is no effect and 100 is complete control, visually evaluated after 13 to 15 days
# Procedure, shortened: as §1
# Sunflower [3] = experiment: Test C preemergence; conditions: scale 0 to 100, 0 no effect, 100 complete control
# Sunflower [4] = experiment: Test C preemergence; conditions: scale 0 to 100
# [5] = test system: Surinam grass (Brachiaria decumbens); experiment: Test C postemergence
# Procedure, shortened: (§2)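 Visual injury scores of 0–100, with 100 meaning complete control, were given relative to controls after 12–14 days in the greenhouse. Treatments used a surfactant-containing non-phytotoxic solvent formulation, sprayed on seeded pots preemergence or on 1–4-leaf plants of 2–18 cm postemergence.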
# [6] = test system: bermudagrass (Cynodon dactylon); experiment: Test C postemergence
# Procedure, shortened: as §2
# [7] = test system: chickweed (Stellaria media); experiment: Test C postemergence
# Procedure, shortened: as §2
# [8] = test system: cocklebur (Xanthium strumarium); experiment: Test C postemergence
# Procedure, shortened: as §2
# [9] = test system: common ragweed (Ambrosia elatior); experiment: Test C postemergence
# Procedure, shortened: as §2
# corn (Zea mays) = experiment: Test C postemergence
# Procedure, shortened: as §2
# [10] = test system: crabgrass (Digitaria sanguinalis); experiment: Test C postemergence
# Procedure, shortened: as §2
# [11] = test system: giant foxtail (Setaria faberii); experiment: Test C postemergence
# Procedure, shortened: as §2
# [12] = test system: goosegrass (Eleusine indica); experiment: Test C postemergence
# Procedure, shortened: as §2
# [13] = test system: johnsongrass (Sorghum halepense); experiment: Test C postemergence
# Procedure, shortened: as §2
# kochia (Kochia scoparia) = experiment: Test C postemergence
# Procedure, shortened: as §2
# [14] = test system: lambsquarters (Chenopodium album); experiment: Test C postemergence
# Procedure, shortened: as §2
# [15] = test system: morningglory (Ipomoea hederacea); experiment: Test C postemergence
# Procedure, shortened: as §2
# [16] = test system: pigweed (Amaranthus retroflexus); experiment: Test C postemergence
# Procedure, shortened: as §2
# soybean (Glycine max) = experiment: Test C postemergence
# Procedure, shortened: as §2
# [17] = test system: velvetleaf (Abutilon theophrasti); experiment: Test C postemergence
# Procedure, shortened: as §2
# [18] = test system: woolly cupgrass (Eriochloa villosa); experiment: Test C postemergence
# Procedure, shortened: as §2
# [19] = test system: yellow nutsedge (Cyperus esculentus); experiment: Test C postemergence
# Procedure, shortened: as §2
# Sunflower [20] = experiment: Test C preemergence; conditions: visual evaluation after 12 to 14 days
# [21] = Rate 125 g/ha, scale 0 to 100, 0 no effect, 100 complete control
# [22] = Rate 250 g/ha, scale 0 to 100 (0 no effect, 100 complete control)
# [23] = Rate 500 g/ha, scale 0 to 100 (0 no effect, 100 complete control)
smiles,measurement,setting,value
Cc1cc(C)nc(N2CCC(n3ccc(C(C)(C)C)n3)C2=O)c1 (centres unmarked) [Compound 138],"Plant response rating, Ducksalad",[1],90
same,"Plant response rating, Rice",rice (Oryza saliva),90
same,"Plant response rating, Flatsedge",[2],90
same,"Plant response rating, Sunflower",Sunflower [3]; Rate 250 g/ha,50
same,"Plant response rating, Sunflower",Sunflower [4]; Rate 31 g/ha,0
same,"Plant response rating, Sunflower",Sunflower [4]; Rate 62 g/ha,0
COc1cc(N2CCC(n3ccc(C(C)(C)C)n3)C2=O)ccc1Br (centres unmarked) [Compound 141],"Plant response rating, Surinam grass","[5]; Rate 62 g/ha, scale 0 to 100",20
same,"Plant response rating, Surinam grass",[5]; [21],40
same,"Plant response rating, Surinam grass",[5]; [22],60
same,"Plant response rating, Surinam grass",[5]; [23],60
same,"Plant response rating, Bermudagrass","[6]; Rate 62 g/ha, scale 0 to 100",40
same,"Plant response rating, Bermudagrass",[6]; [21],60
same,"Plant response rating, Bermudagrass",[6]; [22],60
same,"Plant response rating, Bermudagrass",[6]; [23],100
same,"Plant response rating, Chickweed","[7]; Rate 62 g/ha, scale 0 to 100",90
same,"Plant response rating, Chickweed",[7]; [21],100
same,"Plant response rating, Chickweed",[7]; [22],100
same,"Plant response rating, Chickweed",[7]; [23],100
same,"Plant response rating, Cocklebur","[8]; Rate 62 g/ha, scale 0 to 100",70
same,"Plant response rating, Cocklebur",[8]; [22],70
same,"Plant response rating, Cocklebur",[8]; [23],100
same,"Plant response rating, Ragweed, Common","[9]; Rate 62 g/ha, scale 0 to 100",20
same,"Plant response rating, Ragweed, Common",[9]; [22],80
same,"Plant response rating, Ragweed, Common",[9]; [23],90
same,"Plant response rating, Corn","corn (Zea mays); Rate 62 g/ha, scale 0 to 100",0
same,"Plant response rating, Corn",corn (Zea mays); [22],0
same,"Plant response rating, Corn",corn (Zea mays); [23],0
same,"Plant response rating, Corn",corn (Zea mays); scale 0 to 100,0
same,"Plant response rating, Crabgrass","[10]; Rate 62 g/ha, scale 0 to 100",60
same,"Plant response rating, Crabgrass",[10]; [22],60
same,"Plant response rating, Crabgrass",[10]; [23],70
same,"Plant response rating, Foxtail, Giant",[11]; [22],80
same,"Plant response rating, Goosegrass","[12]; Rate 62 g/ha, scale 0 to 100",20
same,"Plant response rating, Goosegrass",[12]; [22],50
same,"Plant response rating, Goosegrass",[12]; [23],70
same,"Plant response rating, Johnsongrass","[13]; Rate 62 g/ha, scale 0 to 100",20
same,"Plant response rating, Johnsongrass",[13]; [22],30
same,"Plant response rating, Johnsongrass",[13]; [23],40
same,"Plant response rating, Johnsongrass","[13]; rate not given, scale 0 to 100",30
same,"Plant response rating, Kochia","kochia (Kochia scoparia); Rate 62 g/ha, scale 0 to 100",10
same,"Plant response rating, Kochia",kochia (Kochia scoparia); [22],80
same,"Plant response rating, Kochia",kochia (Kochia scoparia); [23],90
same,"Plant response rating, Lambsquarters","[14]; Rate 62 g/ha, scale 0 to 100",70
same,"Plant response rating, Lambsquarters",[14]; [23],100
same,"Plant response rating, Morningglory","[15]; Rate 62 g/ha, scale 0 to 100",70
same,"Plant response rating, Morningglory",[15]; [23],100
same,"Plant response rating, Pigweed","[16]; Rate 62 g/ha, scale 0 to 100",70
same,"Plant response rating, Pigweed",[16]; [22],70
same,"Plant response rating, Pigweed",[16]; [23],100
same,"Plant response rating, Soybean","soybean (Glycine max); Rate 62 g/ha, scale 0 to 100",90
same,"Plant response rating, Soybean",soybean (Glycine max); [22],100
same,"Plant response rating, Soybean",soybean (Glycine max); [23],100
same,"Plant response rating, Velvetleaf","[17]; Rate 62 g/ha, scale 0 to 100",50
same,"Plant response rating, Velvetleaf",[17]; [22],50
same,"Plant response rating, Velvetleaf",[17]; [23],80
same,"Plant response rating, Velvetleaf",[17]; scale 0 to 100,50
same,"Plant response rating, Cupgrass, Woolly","[18]; Rate 62 g/ha, scale 0 to 100",30
same,"Plant response rating, Cupgrass, Woolly",[18]; [22],50
same,"Plant response rating, Cupgrass, Woolly",[18]; [23],70
same,"Plant response rating, Nutsedge","[19]; Rate 62 g/ha, scale 0 to 100",0
same,"Plant response rating, Nutsedge",[19]; [22],0
same,"Plant response rating, Nutsedge",[19]; [23],0
same,"Plant response rating (0 to 100), Sunflower",Sunflower [20]; Rate 500 g/ha,100
same,"Plant response rating, Sunflower",Sunflower [3]; Rate 250 g/ha,40
same,"Plant response rating, Sunflower",Sunflower [4]; Rate 62 g/ha,30
CC(C)(C)c1ccn(C2CCN(c3cccc(C(F)(F)F)c3)C2=S)n1 (centres unmarked) [Compound 22],"Plant response rating, Ducksalad",[1],100
same,"Plant response rating, Rice",rice (Oryza saliva),90
same,"Plant response rating, Flatsedge",[2],100
same,"Plant response rating (0 to 100), Sunflower",Sunflower [20]; Rate 250 g/ha,0
same,"Plant response rating, Sunflower",Sunflower [3]; Rate 125 g/ha,0
CCC(CC)c1ccn(C2CCN(c3ccc(Br)c(OC)c3)C2=O)n1 (centres unmarked) [Compound 143],"Plant response rating, Surinam grass","[5]; Rate 62 g/ha, scale 0 to 100",20
same,"Plant response rating, Surinam grass",[5]; [21],20
same,"Plant response rating, Surinam grass",[5]; [22],50
same,"Plant response rating, Surinam grass",[5]; [23],70
same,"Plant response rating, Bermudagrass","[6]; Rate 62 g/ha, scale 0 to 100",20
same,"Plant response rating, Bermudagrass",[6]; [21],40
same,"Plant response rating, Bermudagrass",[6]; [22],70
same,"Plant response rating, Bermudagrass",[6]; [23],80
same,"Plant response rating, Chickweed","[7]; Rate 62 g/ha, scale 0 to 100",100
same,"Plant response rating, Chickweed",[7]; [21],100
same,"Plant response rating, Cocklebur","[8]; Rate 62 g/ha, scale 0 to 100",20
same,"Plant response rating, Cocklebur",[8]; [22],90
same,"Plant response rating, Cocklebur",[8]; [23],90
same,"Plant response rating, Ragweed, Common","[9]; Rate 62 g/ha, scale 0 to 100",20
same,"Plant response rating, Ragweed, Common",[9]; [22],90
same,"Plant response rating, Ragweed, Common",[9]; [23],90
same,"Plant response rating, Corn","corn (Zea mays); Rate 62 g/ha, scale 0 to 100",0
same,"Plant response rating, Corn",corn (Zea mays); [22],0
same,"Plant response rating, Corn",corn (Zea mays); [23],30
same,"Plant response rating, Corn",corn (Zea mays); scale 0 to 100,0
same,"Plant response rating, Crabgrass","[10]; Rate 62 g/ha, scale 0 to 100",40
same,"Plant response rating, Crabgrass",[10]; [22],70
same,"Plant response rating, Crabgrass",[10]; [23],70
same,"Plant response rating, Foxtail, Giant","[11]; Rate 62 g/ha, scale 0 to 100",30
same,"Plant response rating, Foxtail, Giant",[11]; [22],80
same,"Plant response rating, Foxtail, Giant",[11]; [23],90
same,"Plant response rating, Goosegrass","[12]; Rate 62 g/ha, scale 0 to 100",30
same,"Plant response rating, Goosegrass",[12]; [22],60
same,"Plant response rating, Goosegrass",[12]; [23],70
same,"Plant response rating, Johnsongrass","[13]; Rate 62 g/ha, scale 0 to 100",0
same,"Plant response rating, Johnsongrass",[13]; [22],30
same,"Plant response rating, Johnsongrass",[13]; [23],30
same,"Plant response rating, Johnsongrass","[13]; rate not given, scale 0 to 100",10
same,"Plant response rating, Kochia","kochia (Kochia scoparia); Rate 62 g/ha, scale 0 to 100",40
same,"Plant response rating, Kochia",kochia (Kochia scoparia); [22],90
same,"Plant response rating, Kochia",kochia (Kochia scoparia); [23],90
same,"Plant response rating, Lambsquarters","[14]; Rate 62 g/ha, scale 0 to 100",90
same,"Plant response rating, Lambsquarters",[14]; [22],90
same,"Plant response rating, Lambsquarters",[14]; [23],100
same,"Plant response rating, Morningglory","[15]; Rate 62 g/ha, scale 0 to 100",90
same,"Plant response rating, Morningglory",[15]; [22],100
same,"Plant response rating, Morningglory",[15]; [23],100
same,"Plant response rating, Pigweed","[16]; Rate 62 g/ha, scale 0 to 100",70
same,"Plant response rating, Pigweed",[16]; [22],70
same,"Plant response rating, Pigweed",[16]; [23],90
same,"Plant response rating, Soybean","soybean (Glycine max); Rate 62 g/ha, scale 0 to 100",60
same,"Plant response rating, Soybean",soybean (Glycine max); [22],100
same,"Plant response rating, Soybean",soybean (Glycine max); [23],100
same,"Plant response rating, Velvetleaf","[17]; Rate 62 g/ha, scale 0 to 100",40
same,"Plant response rating, Velvetleaf",[17]; [22],80
same,"Plant response rating, Velvetleaf",[17]; [23],90
same,"Plant response rating, Velvetleaf",[17]; scale 0 to 100,40
same,"Plant response rating, Cupgrass, Woolly","[18]; Rate 62 g/ha, scale 0 to 100",40
same,"Plant response rating, Cupgrass, Woolly",[18]; [22],60
same,"Plant response rating, Cupgrass, Woolly",[18]; [23],70
same,"Plant response rating, Nutsedge","[19]; Rate 62 g/ha, scale 0 to 100",0
same,"Plant response rating, Nutsedge",[19]; [22],0
same,"Plant response rating, Nutsedge",[19]; [23],0
same,"Plant response rating (0 to 100), Sunflower",Sunflower [20]; Rate 500 g/ha,90
same,"Plant response rating, Sunflower",Sunflower [3]; Rate 250 g/ha,80
same,"Plant response rating, Sunflower",Sunflower [4]; Rate 62 g/ha,60
